The values that follow come from patent US12371454B2, “Cyclic peptide compound having Kras inhibitory action” (priority 2019, dated 2025).

Starred links: 1 amine or outer side, 2 acyl side, 3 side chain; linkers in the order of their positions; H or OH if unused. Positions of bridges follow the written chain, without caps; N, C: chain ends. Non-standard residues stand in square brackets, D forms with d. Residues, ends and D or L forms follow the SMILES beside them. *: point of attachment. hPhe(3-Cl-4-CF3) = N[C@@H](CCc1ccc(C(F)(F)F)c(Cl)c1)C(=O)O; X38 = CN([C@@H](Cc1cccc(OC(F)(F)F)c1)C(=O)[*:2])[*:1]; X23 = CN([C@@H](Cc1ccccc1OC(F)(F)F)C(=O)[*:2])[*:1]; NMePhe(3-Br) = CN[C@@H](Cc1cccc(Br)c1)C(=O)O; NMePhe(4-Me) = CN[C@@H](Cc1ccc(C)cc1)C(=O)O; NMedβ3hAla = C[C@H](CC(=O)[*:2])N(C)[*:1]; NMeAla(cPent) = CN[C@@H](CC1CCCC1)C(=O)O; NMeGly(cPent) = CN[C@H](C(=O)O)C1CCCC1; NMeCha = CN[C@@H](CC1CCCCC1)C(=O)O; NMeChg = CN[C@H](C(=O)O)C1CCCCC1; NMeI = CC[C@H](C)[C@H](NC)C(=O)O; NMeD = CN[C@@H](CC(=O)O)C(=O)O; NMeL = CN[C@@H](CC(C)C)C(=O)O; NMeV = CN[C@H](C(=O)O)C(C)C; NMeS = CN[C@@H](CO)C(=O)O; NMeA = CN[C@@H](C)C(=O)O; Piperidide = C1CCN(*)CC1; Pyrrolidide = C1CCN(*)C1; Ac5c = NC1(C(=O)O)CCCC1; Aze = O=C(O)[C@@H]1CCN1; Aib = CC(C)(N)C(=O)O; Sar = CNCC(=O)O; Propyl = CCC*

For test [1], the system named is Human pancreatic cancer cell line AsPC-1. Briefly: Measurement of AsPC-1 cell growth inhibition (AsPC-1 CGI). The test is classed as cell-based. The following applies: 96 h. A digest of the protocol: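 AsPC-1 cells in 15% FBS RPMI-1640 were exposed to test compound for 96 hours at 37° C, with CellTiter-Glo as endpoint.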
For test [2], the target named is T1, Kras and SOS1 (biotin-tagged human Kras loaded with GDP, His-tagged human SOS1) (Homo sapiens, UniProt P01116, G12D).
T1 construct: made in house; host or cells: E. coli (stated for Kras only)
Briefly: Protein-protein interaction inhibition between Kras and SOS1 (KrasGl2D-SOS PPI) using AlphaScreen. The test is classed as binding. The following applies: AlphaScreen; biotin-tagged human Kras loaded with GDP, His-tagged human SOS1; read-out: KRAS G12D-SOS PPI IC50. Put shortly: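 AlphaScreen format: Ni donor beads capture His-SOS1, streptavidin acceptor beads capture biotinylated Kras (E. coli-expressed, GDP-loaded post-purification). Excite 680 nm, read 520-620 nm.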

T1 sequence (P01116 1-188 isoform P01116-2 G12D): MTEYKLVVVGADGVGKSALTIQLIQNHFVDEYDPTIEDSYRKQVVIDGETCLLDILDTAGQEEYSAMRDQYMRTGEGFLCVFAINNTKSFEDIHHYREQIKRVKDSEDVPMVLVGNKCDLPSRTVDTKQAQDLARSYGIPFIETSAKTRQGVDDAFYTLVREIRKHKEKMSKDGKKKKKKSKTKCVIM

On to `CC[C@H](C)[C@@H]1NC(=O)[C@H](CC(C)C)N(C)C(=O)C[C@@H](C)N(C)C(=O)[C@H](C(C)C)N(C)C(=O)C2(CCCC2)NC(=O)[C@@H]2CCCN2C(=O)[C@H](CCc2ccc(C(F)(F)F)c(Cl)c2)NC(=O)CN(C)C(=O)[C@H](Cc2cccc(OC(F)(F)F)c2)N(C)C(=O)CN(C)C(=O)CN(C)C1=O` [Compound 1637] (cyclo([Ac5c][NMeV][NMedβ3hAla][NMeL]I[Sar][Sar][X38][Sar][hPhe(3-Cl-4-CF3)]P)), for which the IC50 is 0.05 to 0.1 µM in test [1] and 0.017 µM in test [2].
For `CC[C@H](C)[C@@H]1NC(=O)[C@H](CC(C)C)N(C)C(=O)C[C@@H](C(=O)N2CCCCC2)N(C)C(=O)[C@H](C(C)C)N(C)C(=O)C2(CCCC2)NC(=O)[C@@H]2CCCN2C(=O)[C@H](CCc2ccc(C(F)(F)F)c(Cl)c2)NC(=O)CN(C)C(=O)[C@H](Cc2cccc(OC(F)(F)F)c2)N(C)C(=O)CN(C)C(=O)CN(C)C1=O` [Compound 1640] ([NMeL]I[Sar][Sar][X38][Sar][hPhe(3-Cl-4-CF3)]P[Ac5c][NMeV][NMeD]-Piperidide; lactam N-11), in that order: 0.1 to 0.5 µM and 0.0066 µM.
For `CC[C@H](C)[C@@H]1NC(=O)[C@H](CC(C)C)N(C)C(=O)C[C@@H](C(=O)N2CCCCC2)N(C)C(=O)[C@H](C(C)C)N(C)C(=O)C2(CCCC2)NC(=O)[C@@H]2CCCN2C(=O)[C@H](CCc2ccc(C(F)(F)F)c(Cl)c2)NC(=O)CN(C)C(=O)[C@H](Cc2ccccc2OC(F)(F)F)N(C)C(=O)CN(C)C(=O)CN(C)C1=O` [Compound 1641] ([NMeL]I[Sar][Sar][X23][Sar][hPhe(3-Cl-4-CF3)]P[Ac5c][NMeV][NMeD]-Piperidide; lactam N-11), in that order: 0.1 to 0.5 µM and 0.0083 µM.
For `CC[C@H](C)[C@@H]1NC(=O)[C@H](CC(C)C)N(C)C(=O)C[C@@H](C(=O)N2CCCCC2)N(C)C(=O)[C@H](C(C)C)N(C)C(=O)C2(CCCC2)NC(=O)[C@@H]2CCCN2C(=O)[C@H](CCc2ccc(C(F)(F)F)c(Cl)c2)NC(=O)CN(C)C(=O)[C@H](Cc2cccc(Br)c2)N(C)C(=O)CN(C)C(=O)CN(C)C1=O` [Compound 1643] ([NMeL]I[Sar][Sar][NMePhe(3-Br)][Sar][hPhe(3-Cl-4-CF3)]P[Ac5c][NMeV][NMeD]-Piperidide; lactam N-11), in that order: 0.1 to 0.5 µM and 0.0072 µM.
Consider `CC(C)C[C@@H]1NC(=O)[C@H](CC(C)C)N(C)C(=O)C[C@@H](C(=O)N2CCCCC2)N(C)C(=O)[C@H](C2CCCCC2)N(C)C(=O)C2(CCCC2)NC(=O)[C@@H]2CCCN2C(=O)[C@H](CCc2ccc(C(F)(F)F)c(Cl)c2)NC(=O)CN(C)C(=O)[C@H](CC2CCCCC2)N(C)C(=O)CN(C)C(=O)CN(C)C1=O` [Compound 1650] ([NMeL]L[Sar][Sar][NMeCha][Sar][hPhe(3-Cl-4-CF3)]P[Ac5c][NMeChg][NMeD]-Piperidide; lactam N-11), for which the results for the IC50 in test [1] and in test [2] were 0.1 to 0.5 µM and 0.0026 µM, respectively.
For `CC[C@H](C)[C@@H]1NC(=O)[C@H](CC(C)C)N(C)C(=O)C[C@@H](C(=O)N2CCCCC2)N(C)C(=O)[C@H](C2CCCCC2)N(C)C(=O)C2(CCCC2)NC(=O)[C@@H]2CCCN2C(=O)[C@H](CCc2ccc(C(F)(F)F)c(Cl)c2)NC(=O)CN(C)C(=O)[C@H](CC(C)C)N(C)C(=O)CN(C)C(=O)CN(C)C1=O` [Compound 1652] ([NMeL]I[Sar][Sar][NMeL][Sar][hPhe(3-Cl-4-CF3)]P[Ac5c][NMeChg][NMeD]-Piperidide; lactam N-11), in that order: 0.1 to 0.5 µM and 0.0031 µM.
For `CC[C@H](C)[C@@H]1NC(=O)[C@H](CC(C)C)N(C)C(=O)C[C@@H](C(=O)N2CCCC2)N(C)C(=O)[C@H](C(C)C)N(C)C(=O)C2(CCCC2)NC(=O)[C@@H]2CCCN2C(=O)[C@H](CCc2ccc(C(F)(F)F)c(Cl)c2)NC(=O)CN(C)C(=O)[C@H](CC2CCCCC2)N(C)C(=O)[C@@H]2CCN2C(=O)[C@H](C)N(C)C1=O` [Compound 1656] ([NMeL]I[NMeA][Aze][NMeCha][Sar][hPhe(3-Cl-4-CF3)]P[Ac5c][NMeV][NMeD]-Pyrrolidide; lactam N-11), in that order: 0.1 to 0.5 µM and 0.0014 µM.
For `CC[C@H](C)[C@@H]1NC(=O)[C@H](CC(C)C)N(C)C(=O)C[C@@H](C(=O)N2CCCC2)N(C)C(=O)[C@H](C2CCCCC2)N(C)C(=O)C2(CCCC2)NC(=O)[C@@H]2CCCN2C(=O)[C@H](CCc2ccc(C(F)(F)F)c(Cl)c2)NC(=O)CN(C)C(=O)[C@H](Cc2ccc(C)cc2)N(C)C(=O)CN(C)C(=O)CN(C)C1=O` [Compound 1658] ([NMeL]I[Sar][Sar][NMePhe(4-Me)][Sar][hPhe(3-Cl-4-CF3)]P[Ac5c][NMeChg][NMeD]-Pyrrolidide; lactam N-11), in that order: 0.02 to 0.05 µM and 0.00055 µM.
Turning to `CC[C@H](C)[C@@H]1NC(=O)[C@H](CC2CCCC2)N(C)C(=O)C[C@@H](C(=O)N2CCCCC2)N(C)C(=O)[C@H](C2CCCCC2)N(C)C(=O)C2(CCCC2)NC(=O)[C@@H]2CCCN2C(=O)[C@H](CCc2ccc(C(F)(F)F)c(Cl)c2)NC(=O)CN(C)C(=O)[C@H](CC2CCCCC2)N(C)C(=O)CN(C)C(=O)CN(C)C1=O` [Compound 1663] ([NMeAla(cPent)]I[Sar][Sar][NMeCha][Sar][hPhe(3-Cl-4-CF3)]P[Ac5c][NMeChg][NMeD]-Piperidide; lactam N-11), the IC50 in test [1] is 0.1 to 0.5 µM; in test [2], 0.0016 µM.
For `CCCOC[C@H]1C(=O)N[C@@H]([C@@H](C)CC)C(=O)N(C)CC(=O)N(C)CC(=O)N(C)[C@@H](CC2CCCCC2)C(=O)N(C)CC(=O)N[C@@H](CCc2ccc(C(F)(F)F)c(Cl)c2)C(=O)N2CCC[C@H]2C(=O)NC2(CCCC2)C(=O)N(C)[C@@H](C2CCCCC2)C(=O)N(C)[C@H](C(=O)N2CCCCC2)CC(=O)N1C` [Compound 1668] ([NMeS](Propyl)I[Sar][Sar][NMeCha][Sar][hPhe(3-Cl-4-CF3)]P[Ac5c][NMeChg][NMeD]-Piperidide; lactam N-11), in that order: 0.05 to 0.1 µM and 0.00085 µM.
For `CC[C@H](C)[C@@H]1NC(=O)[C@H](CC(C)C)N(C)C(=O)C[C@@H](C(=O)N2CCCCC2)N(C)C(=O)[C@H](C2CCCCC2)N(C)C(=O)C2(CCCC2)NC(=O)[C@@H]2CCCN2C(=O)[C@H](CCc2ccc(C(F)(F)F)c(Cl)c2)NC(=O)CN(C)C(=O)[C@H](C2CCCC2)N(C)C(=O)CN(C)C(=O)CN(C)C1=O` [Compound 1669] ([NMeL]I[Sar][Sar][NMeGly(cPent)][Sar][hPhe(3-Cl-4-CF3)]P[Ac5c][NMeChg][NMeD]-Piperidide; lactam N-11), in that order: 0.1 to 0.5 µM and 0.0018 µM.
For `CC[C@H](C)[C@@H]1NC(=O)[C@H]([C@@H](C)CC)N(C)C(=O)C[C@@H](C(=O)N2CCCCC2)N(C)C(=O)[C@H](C2CCCCC2)N(C)C(=O)C2(CCCC2)NC(=O)[C@@H]2CCCN2C(=O)[C@H](CCc2ccc(C(F)(F)F)c(Cl)c2)NC(=O)CN(C)C(=O)[C@H](CC2CCCCC2)N(C)C(=O)CN(C)C(=O)CN(C)C1=O` [Compound 1671] ([NMeI]I[Sar][Sar][NMeCha][Sar][hPhe(3-Cl-4-CF3)]P[Ac5c][NMeChg][NMeD]-Piperidide; lactam N-11), in that order: 0.05 to 0.1 µM and 0.0011 µM.
As for `CC[C@H](C)[C@@H]1NC(=O)[C@H](CC(C)C)N(C)C(=O)C[C@@H](C)N(C)C(=O)[C@H](C2CCCCC2)N(C)C(=O)C2(CCCC2)NC(=O)[C@@H]2CCCN2C(=O)[C@H](CCc2ccc(C(F)(F)F)c(Cl)c2)NC(=O)CN(C)C(=O)[C@H](Cc2ccc(C)cc2)N(C)C(=O)[C@@H]2CCN2C(=O)[C@H](C)N(C)C1=O` [Compound 1673] (cyclo([Ac5c][NMeChg][NMedβ3hAla][NMeL]I[NMeA][Aze][NMePhe(4-Me)][Sar][hPhe(3-Cl-4-CF3)]P)), the results for the IC50 in test [1] and in test [2] were 0.1 to 0.5 µM and 0.0054 µM, respectively.
`CC[C@H](C)[C@@H]1NC(=O)[C@H](CC(C)C)N(C)C(=O)C[C@@H](C(=O)N2CCCCC2)N(C)C(=O)[C@H](C2CCCCC2)N(C)C(=O)C(C)(C)NC(=O)[C@@H]2CCCN2C(=O)[C@H](CCc2ccc(C(F)(F)F)c(Cl)c2)NC(=O)CN(C)C(=O)[C@H](CC2CCCCC2)N(C)C(=O)CN(C)C(=O)CN(C)C1=O` [Compound 1680] ([NMeL]I[Sar][Sar][NMeCha][Sar][hPhe(3-Cl-4-CF3)]P[Aib][NMeChg][NMeD]-Piperidide; lactam N-11): the IC50 in test [1] is 0.05 to 0.1 µM; in test [2] it was 0.00061 µM.
For `CC[C@H](C)[C@@H]1NC(=O)[C@H](CC(C)C)N(C)C(=O)C[C@@H](C)N(C)C(=O)[C@H](C2CCCCC2)N(C)C(=O)C2(CCCC2)NC(=O)[C@@H]2CCCN2C(=O)[C@H](CCc2ccc(C(F)(F)F)c(Cl)c2)NC(=O)CN(C)C(=O)[C@H](Cc2ccc(C)cc2)N(C)C(=O)CN(C)C(=O)CN(C)C1=O` [Compound 1682] (cyclo([Ac5c][NMeChg][NMedβ3hAla][NMeL]I[Sar][Sar][NMePhe(4-Me)][Sar][hPhe(3-Cl-4-CF3)]P)), in that order: 0.1 to 0.5 µM and 0.0024 µM.
For `CC[C@H](C)[C@@H]1NC(=O)[C@H](CC(C)C)N(C)C(=O)C[C@@H](C(=O)N2CCCCC2)N(C)C(=O)[C@H](C(C)C)N(C)C(=O)C2(CCCC2)NC(=O)[C@@H]2CCCN2C(=O)[C@H](CCc2ccc(C(F)(F)F)c(Cl)c2)NC(=O)CN(C)C(=O)[C@H]([C@@H](C)CC)N(C)C(=O)[C@@H]2CCN2C(=O)[C@H](C)N(C)C1=O` [Compound 1684] ([NMeL]I[NMeA][Aze][NMeI][Sar][hPhe(3-Cl-4-CF3)]P[Ac5c][NMeV][NMeD]-Piperidide; lactam N-11), in that order: 0.1 to 0.5 µM and 0.0043 µM.
